# Laboratory results from patent US6914045B2, “Glycopeptide antibiotics” (Wyeth Holdings Corporation, priority 2001, dated 2005).
# Where two headings read alike, the source gives them in different places.
# Legend:
# Streptococcus sp. = assay: in vitro antibacterial evaluation, MIC by broth dilution; format: cell-based; conditions: broth dilution, 18 hours at 35° C.
# In short: (§1)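 Test organisms, which included recent clinical isolates resistant to methicillin, penicillin and/or vancomycin, were inoculated at 5×10^5 CFU/mL into Muller-Hinton II […] containing antibiotic at 64-0.06 μg/mL. Minimum inhibitory concentrations were then read as the lowest level inhibiting growth.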
# Enterococcus sp. = assay: as above; format: cell-based; conditions: broth dilution, 18 hours at 35° C.
# In short: as §1
# Staphylococcus sp. = assay: as above; format: cell-based; conditions: broth dilution, 18 hours at 35° C.
# In short: as §1
# Escherichia coli = assay: as above; format: cell-based; conditions: 18 hours at 35° C.
# In short: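 Inoculum 5×10^5 CFU/mL; concentrations 64 to 0.06 μg/mL; MIC defined as lowest inhibitory level. Conducted by broth dilution under NCCLS guidelines.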
# [1] = system: Gram-positive bacteria comprised of Staphylococcus sp., Streptococcus sp. and Enterococcus sp.; assay: in vitro antibacterial evaluation, MIC by broth dilution (strain not given); format: cell-based
# Protocol: Methods for in vitro Antibacterial Evaluation (Table 1)
# The minimum inhibitory concentration (MIC), the lowest concentration of the antibiotic which inhibits growth of the test organism, is determined by the broth dilution method using Muller-Hinton II […] (Baltimore Biological Laboratories) following the recommendations of the National Committee for Clinical Laboratory Standards [Methods for dilution antimicrobial susceptibility tests for bacteria that grow aerobically, approved standard M7-A2, National Committee for Clinical Laboratory Standards, Villanova, Pa.].
# An inoculum level of 5×10^5 CFU/mL, and a range of antibiotic concentrations (64-0.06 μg/mL) is used. […] The test organisms include a spectrum of Gram-positive bacteria comprised of Staphylococcus sp., Streptococcus sp. and Enterococcus sp. These organisms include recent clinical isolates that are resistant to methicillin, penicillin and/or vancomycin.
# [2] = system: Staphylococcus aureus-SMITH (GC 4543); assay: acute lethal infection in mice; format: in vivo; conditions: Staphylococcus, read-out: median effective dose (ED50), Staphylococcus aureus-SMITH (GC 4543)
# In short: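 Survival at 7 days, pooled from three independent tests, yields ED50 values. Treatment is intravenous, 30 min after ip infection of female CD-1 mice, using an inoculum lethal to untreated controls within 24-48 hr.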
smiles,measurement,setting,value
"CC(c1ccccc1)[C@@H]1NC(=O)CNC(=O)[C@H](CO)NC(=O)[C@H](C(O)C2CNC(=N)N2)NC(=O)[C@H](C(O)C2CNC(=N)N2)NC(=O)[C@H](Cc2ccc(O)cc2)NC1=O (stereo partly drawn) [Example 280b, Cyclo[glycyl-β-methylphenylalanyltyrosyl-3-(2-iminoimidazolidin-4-yl)seryl-3-(2-iminoimidazolidin-4-yl)serylseryl]]",MIC,"Streptococcus sp.; strain ATCC 6301, read-out: MIC Streptococcus pneumoniae (ATCC 6301)",32 µg/mL
same,MIC,"Streptococcus sp.; strain GC 1894, read-out: MIC Streptococcus pneumoniae (GC 1894)",64 µg/mL
same,MIC,"Streptococcus sp.; strain GC 4563, read-out: MIC Streptococcus pyogenes (GC 4563)",64 µg/mL
same,MIC,"Streptococcus sp.; strain GC 4564, read-out: MIC Streptococcus agalactiae (GC 4564)",128 µg/mL
same,MIC,"Streptococcus sp.; strain GC 4565, read-out: MIC Streptococcus pneumoniae (GC 4565)",128 µg/mL
same,MIC,"Enterococcus sp.; Enterococcus avium (GC 4558), read-out: MIC, Enterococcus avium (GC 4558)",128 µg/mL
same,MIC,"Enterococcus sp.; Enterococcus faecalis (ATCC 29212), read-out: MIC, Enterococcus faecalis (ATCC 29212)",> 128 µg/mL
same,MIC,"Enterococcus sp.; Enterococcus faecalis (GC 4553), read-out: MIC, Enterococcus faecalis (GC 4553)",> 128 µg/mL
same,MIC,"Enterococcus sp.; Enterococcus faecalis (GC 4554), read-out: MIC, Enterococcus faecalis (GC 4554)",> 128 µg/mL
same,MIC,"Enterococcus sp.; Enterococcus faecalis (GC 6189), read-out: MIC, Enterococcus faecalis (GC 6189)",> 128 µg/mL
same,MIC,"Enterococcus sp.; Enterococcus faecium (GC 2243), read-out: MIC, Enterococcus faecium (GC 2243)",128 µg/mL
same,MIC,"Enterococcus sp.; Enterococcus faecium (GC 4556), read-out: MIC, Enterococcus faecium (GC 4556)",> 128 µg/mL
same,MIC,"Enterococcus sp.; Enterococcus faecium (GC 4557), read-out: MIC, Enterococcus faecium (GC 4557)",64 µg/mL
same,MIC,"Enterococcus sp.; strain ATCC 29212, read-out: MIC Enterococcus faecalis (ATCC 29212)",> 128 µg/mL
same,MIC,"Enterococcus sp.; strain GC 2242, read-out: MIC Enterococcus faecalis (GC 2242)",> 128 µg/mL
same,MIC,"Enterococcus sp.; strain GC 2243, read-out: MIC Enterococcus faecium (GC 2243)",128 µg/mL
same,MIC,"Enterococcus sp.; strain GC 2691, read-out: MIC Enterococcus faecalis (GC 2691)",> 128 µg/mL
same,MIC,"Enterococcus sp.; strain GC 3059, read-out: MIC Enterococcus faecalis (GC 3059)",> 128 µg/mL
same,MIC,"Enterococcus sp.; strain GC 4552, read-out: MIC Enterococcus faecalis (GC 4552)",> 128 µg/mL
same,MIC,"Enterococcus sp.; strain GC 4553, read-out: MIC Enterococcus faecalis (GC 4553)",> 128 µg/mL
same,MIC,"Enterococcus sp.; strain GC 4554, read-out: MIC Enterococcus faecalis (GC 4554)",> 128 µg/mL
same,MIC,"Enterococcus sp.; strain GC 4556, read-out: MIC Enterococcus faecium (GC 4556)",> 128 µg/mL
same,MIC,"Enterococcus sp.; strain GC 4557, read-out: MIC Enterococcus faecium (GC 4557)",64 µg/mL
same,MIC,"Enterococcus sp.; strain GC 4558, read-out: MIC Enterococcus avium (GC 4558)",128 µg/mL
same,MIC,"Enterococcus sp.; strain GC 6189, read-out: MIC Enterococcus faecalis (GC 6189)",> 128 µg/mL
same,MIC,"Staphylococcus sp.; Staphylococcus, read-out: MIC Coagulase Negative Staphylococcus (GC 4547)",32 µg/mL
same,MIC,"Staphylococcus sp.; Staphylococcus, read-out: MIC Coagulase Negative Staphylococcus (GC 4548)",128 µg/mL
same,MIC,"Staphylococcus sp.; Staphylococcus, read-out: MIC Coagulase Negative Staphylococcus (GC 4549)",32 µg/mL
same,MIC,"Staphylococcus sp.; Staphylococcus, read-out: MIC Coagulase Negative Staphylococcus (GC 4551)",128 µg/mL
same,MIC,"Staphylococcus sp.; Staphylococcus, read-out: MIC Coagulase Negative Staphylococcus (GC 6257)",32 µg/mL
same,MIC,"Staphylococcus sp.; Staphylococcus, read-out: MIC Staphylococcus aureus-SMITH (GC 4543)",64 µg/mL
same,MIC,Staphylococcus sp.; read-out: MIC Staphylococcus aureus (ATCC 29213),128 µg/mL
same,MIC,Staphylococcus sp.; read-out: MIC Staphylococcus aureus (GC 1131),> 128 µg/mL
same,MIC,Staphylococcus sp.; read-out: MIC Staphylococcus aureus (GC 3051),128 µg/mL
same,MIC,Staphylococcus sp.; read-out: MIC Staphylococcus aureus (GC 3053),> 128 µg/mL
same,MIC,Staphylococcus sp.; read-out: MIC Staphylococcus aureus (GC 4541),128 µg/mL
same,MIC,Staphylococcus sp.; read-out: MIC Staphylococcus aureus (GC 4542),128 µg/mL
same,MIC,Staphylococcus sp.; read-out: MIC Staphylococcus aureus (GC 4544),128 µg/mL
same,MIC,Staphylococcus sp.; read-out: MIC Staphylococcus aureus (GC 4545),64 µg/mL
same,MIC,Staphylococcus sp.; read-out: MIC Staphylococcus haemolyticus (GC 4546),32 µg/mL
same,MIC Staphylococcus aureus (ATCC 29213),Staphylococcus sp.; strain ATCC 29213,128 µg/mL
same,MIC Staphylococcus aureus (GC 1131),Staphylococcus sp.; strain GC 1131,>128 µg/mL
same,MIC Staphylococcus aureus (GC 3051),Staphylococcus sp.; strain GC 3051,128 µg/mL
same,MIC Staphylococcus aureus (GC 3053),Staphylococcus sp.; strain GC 3053,>128 µg/mL
same,MIC Staphylococcus aureus (GC 4541),Staphylococcus sp.; strain GC 4541,128 µg/mL
same,MIC Staphylococcus aureus (GC 4542),Staphylococcus sp.; strain GC 4542,128 µg/mL
same,MIC Staphylococcus aureus (GC 4544),Staphylococcus sp.; strain GC 4544,128 µg/mL
same,MIC Staphylococcus aureus (GC 4545),Staphylococcus sp.; strain GC 4545,64 µg/mL
same,MIC Staphylococcus haemolyticus (GC 4546),Staphylococcus sp.; strain GC 4546,32 µg/mL
same,MIC Coagulase Negative Staphylococcus (GC 4547),Staphylococcus sp.; strain GC 4547,32 µg/mL
same,MIC Coagulase Negative Staphylococcus (GC 4548),Staphylococcus sp.; strain GC 4548,128 µg/mL
same,MIC Coagulase Negative Staphylococcus (GC 4549),Staphylococcus sp.; strain GC 4549,32 µg/mL
same,MIC Coagulase Negative Staphylococcus (GC 4551),Staphylococcus sp.; strain GC 4551,128 µg/mL
same,MIC Coagulase Negative Staphylococcus (GC 6257),Staphylococcus sp.; strain GC 6257,32 µg/mL
same,MIC Staphylococcus aureus-SMITH (GC 4543),Staphylococcus sp.; strain SMITH GC 4543,64 µg/mL
same,MIC,"Escherichia coli; ATCC25922, Escherichia coli (ATCC 25922), read-out: MIC, Escherichia coli (ATCC 25922)",32 µg/mL
same,MIC,"Escherichia coli; Escherichia coli (GC 4559), read-out: MIC, Escherichia coli (GC 4559)",16 µg/mL
same,MIC,"Escherichia coli; Escherichia coli (GC 4560), read-out: MIC, Escherichia coli (GC 4560)",32 µg/mL
same,MIC,"[1]; Table 2 section r2574-r2600, column 1, 18 hours at 35° C., read-out: MIC, strain of column 1",128 µg/mL
same,MIC,"[1]; Table 2 section r2574-r2600, column 2, 18 hours at 35° C., read-out: MIC, strain of column 2",64 µg/mL
same,MIC,"[1]; Table 2 section r2574-r2600, column 3, 18 hours at 35° C., read-out: MIC, strain not given",128 µg/mL
same,MIC,"[1]; Table 2 section r2574-r2600, column 5, 18 hours at 35° C., read-out: MIC, strain of column 5",64 µg/mL
same,MIC,"[1]; Table 2 section r2574-r2600, column 7, 18 hours at 35° C., read-out: MIC, strain not given",> 128 µg/mL
same,MIC,"[1]; Table 2 section r2574-r2600, column 9, 18 hours at 35° C., read-out: MIC, strain of column 9",> 128 µg/mL
same,MIC,"[1]; Table 2 section r2574-r2600, column 10, 18 hours at 35° C., read-out: MIC, strain of column 10",> 128 µg/mL
same,ED50,[2],> 8 mg/kg
